Assay results published in US20250235427A1, “5-METHOXY-N,N-[…][…] THE TREATMENT OF SOCIAL/EMOTIONAL […] DETACHMENT” (GH RESEARCH IRELAND LIMITED, priority 2022, published 2025).

System: patients with postpartum depression (PPD)
Test: Clinical trial, inhaled 5-MeO-DMT individualized dosing regimen in postpartum depression (one patient so far)
Description: The single-arm, open-label clinical trial will involve 15 adult female patients with clinically diagnosed postpartum depression (PPD).
The second dose (12 mg) will only be administered if: • a. […] The 6 mg dose was safe and well-tolerated according to the investigator, • c. Any psychoactive effects (PsE) of the prior dose have subsided, and • d. Pre-dose vital parameters and forced expiratory volume in one second (FEV1) are in normal range, or if outside of the normal range, are not clinically significant according to the investigator. • 3. Similarly, a third dose (18 mg) will only be administered if: • a. […] The 12 mg dose was safe and well-tolerated according to the investigator, and • c. Any PsE of the prior dose have subsided, and • d. Pre-dose vital parameters and forced expiratory volume in one second (FEV1) are in normal range, or if outside of the normal range, are not clinically significant according to the investigator.
The patients will be assessed for a peak psychedelic experience (based on a patient-scored visual analogue scale, the PE scale), sedation, and other endpoints after dosing. Follow-up visits are planned for Day 1, and Day 7 after the dosing day.

Compound: COc1ccc2[nH]cc(CCN(C)C)c2c1 [5-MeO-DMT]
- BPRS Disorientation score (Day 7, baseline 1): 1
- BPRS Grandiosity improvement (Day 7, baseline 1): 0
- BPRS Grandiosity score (Day 7, baseline 1): 1
- BPRS Hallucinatory behaviour improvement (Day 7, baseline 1): 0
- BPRS Hallucinatory behaviour score (Day 7, baseline 1): 1
- BPRS Hostility improvement (Day 7, baseline 1): 0
- BPRS Hostility score (Day 7, baseline 1): 1
- BPRS Mannerisms and Posturing improvement (Day 7, baseline 1): 0
- BPRS Mannerisms and Posturing score (Day 7, baseline 1): 1
- BPRS Motor retardation improvement (Day 7, baseline 1): 0
- BPRS Motor retardation score (Day 7, baseline 1): 1
- BPRS Suspiciousness improvement (Day 7, baseline 1): 0
- BPRS Suspiciousness score (Day 7, baseline 1): 1
- BPRS Uncooperativeness improvement (Day 7, baseline 1): 0
- BPRS Uncooperativeness score (Day 7, baseline 1): 1
- BPRS Unusual Thought Content improvement (Day 7, baseline 1): 0
- BPRS Unusual Thought Content score (Day 7, baseline 1): 1
- BPRS Excitement improvement (Day 7, baseline 2): 1
- BPRS Excitement score (Day 7, baseline 2): 1
- MADRS Inability to Feel improvement (Day 7, baseline 3): 3
- MADRS Inability to Feel score (Day 7, baseline 3): 0
- MADRS Lassitude improvement (Day 7, baseline 3): 3
- MADRS Lassitude score (Day 7, baseline 3): 0
- MADRS Pessimistic Thoughts improvement (Day 7, baseline 4): 4
- MADRS Pessimistic Thoughts score (Day 7, baseline 4): 0
- MADRS Reported sadness improvement (Day 7, baseline 4): 4
- MADRS Reported sadness score (Day 7, baseline 4): 0
- BPRS Emotional withdrawal improvement (Day 7, baseline 5): 4
- BPRS Emotional withdrawal score (Day 7, baseline 5): 1
- MADRS Apparent sadness improvement (Day 7, baseline 5): 5
- MADRS Apparent sadness score (Day 7, baseline 5): 0
- MADRS Inner Tension improvement (Day 7, baseline 5): 4
- MADRS Inner Tension score (Day 7, baseline 5): 1
- MADRS Reduced Sleep improvement (Day 7, baseline 5): 5
- MADRS Reduced Sleep score (Day 7, baseline 5): 0
- BPRS Depressive Mood improvement (Day 7, baseline 6): 5
- BPRS Depressive Mood score (Day 7, baseline 6): 1
- BPRS Guilt feelings improvement (Day 7, baseline 6): 5
- BPRS Guilt feelings score (Day 7, baseline 6): 1
- BPRS Somatic Concern improvement (Day 7, baseline 6): 5
- BPRS Somatic Concern score (Day 7, baseline 6): 1
- BPRS Tension improvement (Day 7, baseline 6): 5
- BPRS Tension score (Day 7, baseline 6): 1
- BPRS Anxiety improvement (Day 7, baseline 7): 6
- BPRS Anxiety score (Day 7, baseline 7): 1
- BIMF functional domain Adjustment Δ (Day 7) (Day 7 vs Day 0): 1
- BIMF functional domain Infant Care Δ (Day 7) (Day 7 vs Day 0): 0
- BIMF functional domain Management Δ (Day 7) (Day 7 vs Day 0): 5
- BIMF functional domain Mother-Child Interaction Δ (Day 7) (Day 7 vs Day 0): 2
- BIMF functional domain Psychological Well-being Δ (Day 7) (Day 7 vs Day 0): 9
- BIMF functional domain Self Care Δ (Day 7) (Day 7 vs Day 0): 4
- BIMF functional domain Social Support Δ (Day 7) (Day 7 vs Day 0): 1
- BIMF item 1 (I am a good mother) Δ (Day 7) (Day 7 vs Day 0): 0
- BIMF item 2 (I feel rested) Δ (Day 7) (Day 7 vs Day 0): 2
- BIMF item 3 (I am comfortable with the way I've chosen to feed my baby) Δ (Day 7) (Day 7 vs Day 0): 0
- BIMF item 4 (My baby and I understand each other) Δ (Day 7) (Day 7 vs Day 0): 0
- BIMF item 5 (I am able to relax and enjoy time with my baby) Δ (Day 7) (Day 7 vs Day 0): 1
- BIMF item 6 (There are people in my life that I can trust to care for my baby when I need a break) Δ (Day 7) (Day 7 vs Day 0): 0
- BIMF item 8 (I am getting enough adult interaction) Δ (Day 7) (Day 7 vs Day 0): 0
- BIMF item 9 (I am getting enough encouragement from other people) Δ (Day 7) (Day 7 vs Day 0): 1
- BIMF item 10 (I trust my own feelings (instincts) when it comes to taking care of my baby) Δ (Day 7) (Day 7 vs Day 0): 1
- BIMF item 11 (I take a little time each week to do something for myself) Δ (Day 7) (Day 7 vs Day 0): 1
- BIMF item 12 (I am taking good care of my baby's physical needs) Δ (Day 7) (Day 7 vs Day 0): 0
- BIMF item 13 (I am taking good care of my physical needs) Δ (Day 7) (Day 7 vs Day 0): 1
- BIMF item 14 (I make good decisions about my baby's health and well being) Δ (Day 7) (Day 7 vs Day 0): 0
- BIMF item 15 (My baby and I are getting into a routine) Δ (Day 7) (Day 7 vs Day 0): 1
- BIMF item 16 (I worry about how other people judge me (as a mother)) Δ (Day 7) (Day 7 vs Day 0): 2
- BIMF item 17 (I am able to take care of my baby and my other responsibilities) Δ (Day 7) (Day 7 vs Day 0): 0
- BIMF item 18 (Anxiety or worry often interferes with my mothering ability) Δ (Day 7) (Day 7 vs Day 0): 3
- BIMF item 19 (As time goes on, I am getting better at taking care of my baby) Δ (Day 7) (Day 7 vs Day 0): 1
- BIMF item 20 (I am satisfied with the job I am doing as a new mother) Δ (Day 7) (Day 7 vs Day 0): −1
- BPRS Blunted affect improvement (Discharge, baseline 1): 0
- BPRS Blunted affect score (Discharge, baseline 1): 1
- BPRS Conceptual disorganization improvement (Discharge, baseline 1): 0
- BPRS Conceptual disorganization score (Discharge, baseline 1): 1
- BPRS Disorientation improvement (Discharge, baseline 1): 0
- BPRS Disorientation score (Discharge, baseline 1): 1
- BPRS Grandiosity improvement (Discharge, baseline 1): 0
- BPRS Grandiosity score (Discharge, baseline 1): 1
- BPRS Hallucinatory behaviour improvement (Discharge, baseline 1): 0
- BPRS Hallucinatory behaviour score (Discharge, baseline 1): 1
- BPRS Hostility improvement (Discharge, baseline 1): 0
- BPRS Hostility score (Discharge, baseline 1): 1
- BPRS Mannerisms and Posturing improvement (Discharge, baseline 1): 0
- BPRS Mannerisms and Posturing score (Discharge, baseline 1): 1
- BPRS Motor retardation improvement (Discharge, baseline 1): 0
- BPRS Motor retardation score (Discharge, baseline 1): 1
- BPRS Suspiciousness improvement (Discharge, baseline 1): 0
- BPRS Suspiciousness score (Discharge, baseline 1): 1
- BPRS Uncooperativeness improvement (Discharge, baseline 1): 0
- BPRS Uncooperativeness score (Discharge, baseline 1): 1
- BPRS Unusual Thought Content improvement (Discharge, baseline 1): 0
- BPRS Unusual Thought Content score (Discharge, baseline 1): 1
- BPRS Excitement improvement (Discharge, baseline 2): 1
- BPRS Excitement score (Discharge, baseline 2): 1
- BPRS Emotional withdrawal improvement (Discharge, baseline 5): 4
- BPRS Emotional withdrawal score (Discharge, baseline 5): 1
- BPRS Depressive Mood improvement (Discharge, baseline 6): 5
- BPRS Depressive Mood score (Discharge, baseline 6): 1
- BPRS Guilt feelings improvement (Discharge, baseline 6): 5
- BPRS Guilt feelings score (Discharge, baseline 6): 1
- BPRS Somatic Concern improvement (Discharge, baseline 6): 5
- BPRS Somatic Concern score (Discharge, baseline 6): 1
- BPRS Tension score (Discharge, baseline 6): 1
- BPRS Anxiety improvement (Discharge, baseline 7): 6
- BPRS Anxiety score (Discharge, baseline 7): 1
- ECG, safety laboratory analyses, CADSS (ECG 3 hours, laboratory 7 days, CADSS 3 hours, 1 day and 7 days): unremarkable
- changes in vital parameters (shortly after administration): temporary, clinically non-relevant increase in heart rate and blood pressure
